Data taken from patent US20050229276A1, “Method of producing cyclamen root tuber and method of proliferating cyclamen using the same” (Tokyo University of Agricultural, priority 2002, published 2005).

Tested on: explants from petioles of cyclamen (species: Flamenco)
Experiment: Culture of explants from petioles (comparative)
Type: cell-based
Conditions: NAA 0.05 mg/l, 20 explants planted, 30 days
Procedure: For comparison, the explants from leaves and petioles of cyclamen (species: Flamenco) were cultured for 30 days by changing the contents of BA and sucrose in a basal medium prepared by adding 0.05 mg/l of NAA and 6 g/l of agar to the ⅓ MS medium and having a pH of 7.0. In all the cases, the root tubers were hardly enlarged by culture and rarely regenerated and accordingly, a clonal plant could not be obtained with high reproducibility.

c1ccc(CNc2ncnc3[nH]cnc23)cc1 [BA, benzylaminopurine]
4: Number of enlarged explants (BA 0.1 mg/l, sucrose 30 g/m) | Number of regenerate explants (BA 0.1 mg/l, sucrose 30 g/m) | Number of enlarged explants (BA 0.5 mg/l, sucrose 50 g/m)
10: Number of regenerate explants (BA 1 mg/l, sucrose 50 g/m)
3: Number of enlarged explants (BA 0.5 mg/l, sucrose 30 g/m)
0: Number of regenerate explants (BA 0.05 mg/l, sucrose 30 g/m) | Number of regenerate explants (BA 0.05 mg/l, sucrose 50 g/m) | Number of regenerate explants (BA 0.05 mg/l, sucrose 70 g/m) | Number of enlarged explants (BA 0.05 mg/l, sucrose 90 g/m) | Number of regenerate explants (BA 0.05 mg/l, sucrose 90 g/m) | Number of regenerate explants (BA 0.1 mg/l, sucrose 70 g/m) | Number of regenerate explants (BA 0.1 mg/l, sucrose 90 g/m) | Number of regenerate explants (BA 0.5 mg/l, sucrose 70 g/m) | Number of enlarged explants (BA 0.5 mg/l, sucrose 90 g/m) | Number of regenerate explants (BA 0.5 mg/l, sucrose 90 g/m) | Number of regenerate explants (BA 1 mg/l, sucrose 30 g/m) | Number of enlarged explants (BA 1 mg/l, sucrose 70 g/m) | Number of regenerate explants (BA 1 mg/l, sucrose 70 g/m) | Number of enlarged explants (BA 1 mg/l, sucrose 90 g/m) | Number of regenerate explants (BA 1 mg/l, sucrose 90 g/m)
2: Number of enlarged explants (BA 0.05 mg/l, sucrose 30 g/m) | Number of enlarged explants (BA 0.1 mg/l, sucrose 70 g/m)
1: Number of enlarged explants (BA 0.05 mg/l, sucrose 50 g/m) | Number of enlarged explants (BA 0.05 mg/l, sucrose 70 g/m) | Number of regenerate explants (BA 0.1 mg/l, sucrose 50 g/m) | Number of enlarged explants (BA 0.1 mg/l, sucrose 90 g/m) | Number of regenerate explants (BA 0.5 mg/l, sucrose 30 g/m) | Number of regenerate explants (BA 0.5 mg/l, sucrose 50 g/m) | Number of enlarged explants (BA 0.5 mg/l, sucrose 70 g/m) | Number of enlarged explants (BA 1 mg/l, sucrose 30 g/m) | Number of enlarged explants (BA 1 mg/l, sucrose 50 g/m)
5: Number of enlarged explants (BA 0.1 mg/l, sucrose 50 g/m)
